# Test results from patent US9113629B2, “4-amino-6-(4-substituted-phenyl)-picolinates and 6-amino-2-(4-substituted-phenyl)-pyrimidine-4-carboxylates and their use as herbicides” (DOW AGROSCIENCES LLC, priority 2013, dated 2015).
# Read-outs that look alike come from different tables or passages of the source.
# Experiments:
# [1] = test system: Key Grass and Sedge Weeds as well as Grass Crops; assay: Post-emergent Test II herbicidal activity (Table 6); assay type: in vivo; details: post-emergence, 336 h; for pest or weed control at 66 g/ha: application rate 66 g ai/ha; for pest or weed control at 132 g/ha: application rate 132 g ai/ha
# Method in brief: (§1)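 Spray rates: a highest rate plus ½×, ¼×, ⅛×, 1/16×, all delivered at 187 L/ha to plants at the first–second true leaf stage. Readout is a visual percent injury score at 14 d, where 100 means complete kill.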
# [2] = test system: Key Broadleaf Weed and Crop Species; assay: Post-emergent Test II herbicidal activity (Table 5); assay type: in vivo; details: post-emergence, 336 h, post-emergent, 14 days after application; for pest or weed control at 66 g/ha: 66 g ai/ha; for pest or weed control at 132 g/ha: 132 g ai/ha
# Method in brief: as §1
# [3] = Triticum aestivum, TRZSS (wheat), read-out: Visual Growth Reduction (%) 14 Days After Application, TRZSS
# [4] = CYPES: yellow nutsedge (Cyperus esculentus), read-out: Visual Growth Reduction (%) 14 Days After Application, CYPES
# [5] = DIGSA: crabgrass (Digitaria sanguinalis), read-out: Visual Growth Reduction (%) 14 Days After Application, DIGSA
# [6] = ECHCG: barnyardgrass (Echinochloa crus-galli), read-out: Visual Growth Reduction (%) 14 Days After Application, ECHCG
# [7] = ORYSA: rice (Oryza sativa), read-out: Visual Growth Reduction (%) 14 Days After Application, ORYSA
# [8] = SETFA: giant foxtail (Setaria faberi), read-out: Visual Growth Reduction (%) 14 Days After Application, SETFA
# [9] = SORVU: grain sorghum (Sorghum vulgare), read-out: Visual Growth Reduction (%) 14 Days After Application, SORVU
# [10] = ZEAMX: maize, corn (Zea mays), read-out: Visual Growth Reduction (%) 14 Days After Application, ZEAMX
# [11] = ABUTH: velvetleaf (Abutilon theophrasti), read-out: Visual Growth Reduction (%) 14 Days After Application ABUTH
# [12] = AMARE: redroot pigweed (Amaranthus retroflexus), read-out: Visual Growth Reduction (%) 14 Days After Application AMARE
# [13] = BRSNN: oilseed-rape, canola (Brassica napus), read-out: Visual Growth Reduction (%) 14 Days After Application BRSNN
# [14] = CHEAL: lambsquarters (Chenopodium album), read-out: Visual Growth Reduction (%) 14 Days After Application CHEAL
# [15] = EPHHL: wild poinsettia (Euphorbia heterophylla), read-out: Visual Growth Reduction (%) 14 Days After Application EPHHL
# [16] = HELAN: sunflower (Helianthus annuus), read-out: Visual Growth Reduction (%) 14 Days After Application HELAN
# [17] = VIOTR: wild pansy (Viola tricolor), read-out: Visual Growth Reduction (%) 14 Days After Application VIOTR
smiles,measurement,setting,value
"COC(=O)c1nc(-c2ccc(I)c(F)c2)c(C)c(N)c1Cl [Compound 79, Methyl 4-amino-3-chloro-6-(3-fluoro-4-iodophenyl)-5-methylpicolinate]",pest or weed control at 66 g/ha,[1]; [3],0 to 29%
same,pest or weed control at 132 g/ha,[1]; [3],30 to 44%
same,pest or weed control at 66 g/ha,[1]; [4],95 to 100%
same,pest or weed control at 132 g/ha,[1]; [4],95 to 100%
same,pest or weed control at 66 g/ha,[1]; [5],60 to 74%
same,pest or weed control at 132 g/ha,[1]; [5],60 to 74%
same,pest or weed control at 66 g/ha,[1]; [6],60 to 74%
same,pest or weed control at 132 g/ha,[1]; [6],60 to 74%
same,pest or weed control at 66 g/ha,[1]; [7],0 to 29%
same,pest or weed control at 132 g/ha,[1]; [7],0 to 29%
same,pest or weed control at 66 g/ha,[1]; [8],75 to 84%
same,pest or weed control at 132 g/ha,[1]; [8],75 to 84%
same,pest or weed control at 66 g/ha,[1]; [9],60 to 74%
same,pest or weed control at 132 g/ha,[1]; [9],75 to 84%
same,pest or weed control at 66 g/ha,[1]; [10],60 to 74%
same,pest or weed control at 132 g/ha,[1]; [10],60 to 74%
same,pest or weed control at 66 g/ha,[2]; [11],85 to 94%
same,pest or weed control at 132 g/ha,[2]; [11],95 to 100%
same,pest or weed control at 66 g/ha,[2]; [12],60 to 74%
same,pest or weed control at 132 g/ha,[2]; [12],75 to 84%
same,pest or weed control at 66 g/ha,[2]; [13],85 to 94%
same,pest or weed control at 132 g/ha,[2]; [13],85 to 94%
same,pest or weed control at 66 g/ha,[2]; [14],95 to 100%
same,pest or weed control at 132 g/ha,[2]; [14],95 to 100%
same,pest or weed control at 66 g/ha,[2]; [15],0 to 29%
same,pest or weed control at 132 g/ha,[2]; [15],0 to 29%
same,pest or weed control at 66 g/ha,[2]; [16],95 to 100%
same,pest or weed control at 132 g/ha,[2]; [16],95 to 100%
same,pest or weed control at 66 g/ha,[2]; [17],0 to 29%
same,pest or weed control at 132 g/ha,[2]; [17],0 to 29%
